# Source: PubChem BioAssay AID2060885 (Molecular Pharmacology Branch, DTP, NCI, 2025)
# Values joined by “and” are separate entries in the source; they are usually repeats but may differ in a detail not shown here. Identical values can stand only once.
# System: NCI-H23 complex spheroids with HUVEC/MSC, viability
# Assay: Anticancer human tumor NCI-H23 cell line growth inhibition [RAS];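 further: spheroids exposed to compound for 7 days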;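 on viability, T/C: 100% = DMSO vehicle control viability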
# Details: for viability, T/C: stronger effect = lower value
# Outline: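 Agents were tested in combination matrices in half-log decrements from a top concentration at or near clinical Cmax (10 microM if undetermined). Targets were multi-cell spheroids of tumour lines plus HUVEC and MSC stromal cells.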
# [1] = compound alone, run of 07/15/2024
# [2] = curve of first compound, second compound 0.000949 µM
# [3] = curve of first compound, second compound 0.003 µM
# [4] = curve of first compound, second compound 0.00949 µM
# [5] = curve of first compound, second compound 0.03 µM
# [6] = curve of first compound, second compound 0.0949 µM
# [7] = curve of first compound, second compound 0.3 µM
# [8] = second compound 0.000949 µM, first compound 0.0316 µM
# [9] = second compound 0.000949 µM, first compound 0.1 µM
# [10] = second compound 0.000949 µM, first compound 0.316 µM
# [11] = second compound 0.000949 µM, first compound 1 µM
# [12] = second compound 0.003 µM, first compound 0.0316 µM
# [13] = second compound 0.003 µM, first compound 0.1 µM
# [14] = second compound 0.003 µM, first compound 0.316 µM
# [15] = second compound 0.003 µM, first compound 1 µM
# [16] = second compound 0.00949 µM, first compound 0.0316 µM
# [17] = second compound 0.00949 µM, first compound 0.1 µM
# [18] = second compound 0.00949 µM, first compound 0.316 µM
# [19] = second compound 0.00949 µM, first compound 1 µM
# [20] = second compound 0.03 µM, first compound 0.0316 µM
# [21] = second compound 0.03 µM, first compound 0.1 µM
# [22] = second compound 0.03 µM, first compound 0.316 µM
# [23] = second compound 0.03 µM, first compound 1 µM
# [24] = second compound 0.0949 µM, first compound 0.0316 µM
# [25] = second compound 0.0949 µM, first compound 0.1 µM
# [26] = second compound 0.0949 µM, first compound 0.316 µM
# [27] = second compound 0.0949 µM, first compound 1 µM
# [28] = second compound 0.3 µM, first compound 0.0316 µM
# [29] = second compound 0.3 µM, first compound 0.1 µM
# [30] = second compound 0.3 µM, first compound 0.316 µM
# [31] = second compound 0.3 µM, first compound 1 µM
compound,measurement,setting,value
C#Cc1c(F)ccc2cc(O)cc(-c3ncc4c(N5CC6CCC(C5)N6)nc(OCC56CCCN5CC(F)C6)nc4c3F)c12 (stereo unspecified),"viability, T/C",compound 0.0316 µM,108% [middle of 8 runs]
same,"viability, T/C",compound 0.1 µM,105% [middle of 8 runs]
same,"viability, T/C",compound 0.316 µM,99.5% [middle of 8 runs]
same,"viability, T/C",compound 1 µM,89.5% [middle of 8 runs]
same,"viability, T/C",compound 3.16 µM,63.2% [middle of 8 runs]
same,"viability, T/C",compound 10 µM,38.2% [middle of 7 runs]
same,IC50,[1],5.77 µM [middle of 8 runs]
C=CC(=O)N1CCN(c2nc(OCC3CCCN3C)nc3c(F)c(-c4nc(N)cc(C)c4C(F)(F)F)c(Cl)cc23)C(C)C1 (stereo unspecified),"viability, T/C",compound 0.00316 µM,61.5% [middle of 12 runs]
same,"viability, T/C",compound 0.01 µM,48.4% [middle of 12 runs]
same,"viability, T/C",compound 0.0316 µM,39.9% [middle of 12 runs]
same,"viability, T/C",compound 0.1 µM,38.5% [middle of 12 runs]
same,"viability, T/C",compound 0.316 µM,38.3% [middle of 12 runs]
same,"viability, T/C",compound 1 µM,37.2% [middle of 12 runs]
same,IC50,[1],9 nM [middle of 8 runs]
same,IC50,curve of compound,8.5 nM and < 3.16 nM and 7.59 nM
CC(=O)OC12COC1CC(O)C1(C)C(=O)C(O)C3=C(C)C(OC(=O)C(O)C(NC(=O)OC(C)(C)C)c4ccccc4)CC(O)(C(OC(=O)c4ccccc4)C21)C3(C)C (stereo unspecified) + CCn1c(-c2cccnc2C(C)OC)c2c3cc(ccc31)N1CCOC(CC(NC(=O)C(C(C)C)N(C)C(=O)C3(F)CCN(C(=O)C#CC(C)(C)N(C)C)CC3)C(=O)N3CCCC(N3)C(=O)OCC(C)(C)C2)C1,IC50,[2],< 31.6 nM
same,IC50,[3],< 31.6 nM
same,IC50,[4],< 31.6 nM
same,IC50,[5],< 31.6 nM
same,IC50,[6],< 31.6 nM
same,IC50,[7],< 31.6 nM
same,"viability, T/C",[8],10.4%
same,"viability, T/C",[9],12.4%
same,"viability, T/C",[10],9.29%
same,"viability, T/C",[11],12.5%
same,"viability, T/C","second compound 0.000949 µM, first compound 3.16 µM",17.6%
same,"viability, T/C","second compound 0.000949 µM, first compound 10 µM",17.5%
same,"viability, T/C",[12],11.3%
same,"viability, T/C",[13],10.6%
same,"viability, T/C",[14],10.2%
same,"viability, T/C",[15],11.5%
same,"viability, T/C","second compound 0.003 µM, first compound 3.16 µM",17%
same,"viability, T/C","second compound 0.003 µM, first compound 10 µM",14.2%
same,"viability, T/C",[16],9.65%
same,"viability, T/C",[17],8.65%
same,"viability, T/C",[18],11.5%
same,"viability, T/C",[19],11%
same,"viability, T/C","second compound 0.00949 µM, first compound 3.16 µM",12.8%
same,"viability, T/C","second compound 0.00949 µM, first compound 10 µM",15.8%
same,"viability, T/C",[20],9.84%
same,"viability, T/C",[21],8.29%
same,"viability, T/C",[22],10.2%
same,"viability, T/C",[23],9.41%
same,"viability, T/C","second compound 0.03 µM, first compound 3.16 µM",11.5%
same,"viability, T/C","second compound 0.03 µM, first compound 10 µM",16.5%
same,"viability, T/C",[24],8.35%
same,"viability, T/C",[25],8.9%
same,"viability, T/C",[26],8.97%
same,"viability, T/C",[27],9.36%
same,"viability, T/C","second compound 0.0949 µM, first compound 3.16 µM",9.42%
same,"viability, T/C","second compound 0.0949 µM, first compound 10 µM",16.1%
same,"viability, T/C",[28],6.76%
same,"viability, T/C",[29],6.43%
same,"viability, T/C",[30],7.66%
same,"viability, T/C",[31],8.04%
same,"viability, T/C","second compound 0.3 µM, first compound 3.16 µM",9.25%
same,"viability, T/C","second compound 0.3 µM, first compound 10 µM",12.2%
CC(C)n1nc(-c2ccc3oc(N)nc3c2)c2c(N)ncnc21 + C=CC(=O)N1CCN(c2nc(OCC3CCCN3C)nc3c(F)c(-c4nc(N)cc(C)c4C(F)(F)F)c(Cl)cc23)C(C)C1,IC50,"curve of first compound, second compound 0.00316 µM",3.25 nM
same,IC50,"curve of first compound, second compound 0.01 µM",0.445 nM
same,IC50,"curve of first compound, second compound 0.0316 µM",< 0.316 nM
same,IC50,"curve of first compound, second compound 0.1 µM",< 0.316 nM
same,IC50,"curve of first compound, second compound 0.316 µM",< 0.316 nM
same,IC50,"curve of first compound, second compound 1 µM",< 0.316 nM
same,"viability, T/C","second compound 0.00316 µM, first compound 0.000316 µM",58.9%
same,"viability, T/C","second compound 0.00316 µM, first compound 0.001 µM",68.7%
same,"viability, T/C","second compound 0.00316 µM, first compound 0.00316 µM",45.9%
same,"viability, T/C","second compound 0.00316 µM, first compound 0.01 µM",35.2%
same,"viability, T/C","second compound 0.00316 µM, first compound 0.0316 µM",27.3%
same,"viability, T/C","second compound 0.00316 µM, first compound 0.1 µM",17.7%
same,"viability, T/C","second compound 0.01 µM, first compound 0.000316 µM",52.1%
same,"viability, T/C","second compound 0.01 µM, first compound 0.001 µM",44.1%
same,"viability, T/C","second compound 0.01 µM, first compound 0.00316 µM",35.5%
same,"viability, T/C","second compound 0.01 µM, first compound 0.01 µM",25.7%
same,"viability, T/C","second compound 0.01 µM, first compound 0.0316 µM",21.2%
same,"viability, T/C","second compound 0.01 µM, first compound 0.1 µM",16.9%
same,"viability, T/C","second compound 0.0316 µM, first compound 0.000316 µM",39.7%
same,"viability, T/C","second compound 0.0316 µM, first compound 0.001 µM",43.7%
same,"viability, T/C","second compound 0.0316 µM, first compound 0.00316 µM",28.2%
same,"viability, T/C","second compound 0.0316 µM, first compound 0.01 µM",26.2%
same,"viability, T/C","second compound 0.0316 µM, first compound 0.0316 µM",17.3%
same,"viability, T/C","second compound 0.0316 µM, first compound 0.1 µM",16.9%
same,"viability, T/C","second compound 0.1 µM, first compound 0.000316 µM",37.8%
same,"viability, T/C","second compound 0.1 µM, first compound 0.001 µM",32.5%
same,"viability, T/C","second compound 0.1 µM, first compound 0.00316 µM",26.3%
same,"viability, T/C","second compound 0.1 µM, first compound 0.01 µM",23.8%
same,"viability, T/C","second compound 0.1 µM, first compound 0.0316 µM",17.9%
same,"viability, T/C","second compound 0.1 µM, first compound 0.1 µM",14.2%
same,"viability, T/C","second compound 0.316 µM, first compound 0.000316 µM",30.6%
same,"viability, T/C","second compound 0.316 µM, first compound 0.001 µM",38.3%
same,"viability, T/C","second compound 0.316 µM, first compound 0.00316 µM",29.5%
same,"viability, T/C","second compound 0.316 µM, first compound 0.01 µM",22.3%
same,"viability, T/C","second compound 0.316 µM, first compound 0.0316 µM",17.1%
same,"viability, T/C","second compound 0.316 µM, first compound 0.1 µM",15.8%
same,"viability, T/C","second compound 1 µM, first compound 0.000316 µM",27.9%
same,"viability, T/C","second compound 1 µM, first compound 0.001 µM",33.8%
same,"viability, T/C","second compound 1 µM, first compound 0.00316 µM",32.2%
same,"viability, T/C","second compound 1 µM, first compound 0.01 µM",25.9%
same,"viability, T/C","second compound 1 µM, first compound 0.0316 µM",22.5%
same,"viability, T/C","second compound 1 µM, first compound 0.1 µM",16.2%
O=C(c1ccc(F)c(F)c1Nc1ccc(I)cc1F)N1CC(O)([C@@H]2CCCCN2)C1 + CCn1c(-c2cc(N3CCN(C)CC3)cnc2C(C)OC)c2c3cc(ccc31)-c1csc(n1)CC(NC(=O)C1CC1C)C(=O)N1CCCC(N1)C(=O)OCC(C)(C)C2,IC50,[2],< 3.16 nM
same,IC50,[3],< 3.16 nM
same,IC50,[4],< 3.16 nM
same,IC50,[5],< 3.16 nM
same,IC50,[6],< 3.16 nM
same,IC50,[7],< 3.16 nM
same,"viability, T/C","second compound 0.000949 µM, first compound 0.00316 µM",40.8%
same,"viability, T/C","second compound 0.000949 µM, first compound 0.01 µM",42.1%
same,"viability, T/C",[8],30.3%
same,"viability, T/C",[9],27.7%
same,"viability, T/C",[10],14.7%
same,"viability, T/C",[11],7.09%
same,"viability, T/C","second compound 0.003 µM, first compound 0.00316 µM",31.5%
same,"viability, T/C","second compound 0.003 µM, first compound 0.01 µM",33.4%
same,"viability, T/C",[12],22.9%
same,"viability, T/C",[13],20.1%
same,"viability, T/C",[14],10.2%
same,"viability, T/C",[15],5.97%
same,"viability, T/C","second compound 0.00949 µM, first compound 0.00316 µM",33.3%
same,"viability, T/C","second compound 0.00949 µM, first compound 0.01 µM",20.2%
same,"viability, T/C",[16],19%
same,"viability, T/C",[17],10.2%
same,"viability, T/C",[18],5.94%
same,"viability, T/C",[19],5.43%
same,"viability, T/C","second compound 0.03 µM, first compound 0.00316 µM",24%
same,"viability, T/C","second compound 0.03 µM, first compound 0.01 µM",15.2%
same,"viability, T/C",[20],10.5%
same,"viability, T/C",[21],7.97%
same,"viability, T/C",[22],5.26%
same,"viability, T/C",[23],5.71%
same,"viability, T/C","second compound 0.0949 µM, first compound 0.00316 µM",16.1%
same,"viability, T/C","second compound 0.0949 µM, first compound 0.01 µM",11.9%
same,"viability, T/C",[24],8.79%
same,"viability, T/C",[25],6.35%
same,"viability, T/C",[26],5.88%
same,"viability, T/C",[27],5.06%
same,"viability, T/C","second compound 0.3 µM, first compound 0.00316 µM",12.4%
same,"viability, T/C","second compound 0.3 µM, first compound 0.01 µM",9.36%
same,"viability, T/C",[28],8.61%
same,"viability, T/C",[29],5.57%
same,"viability, T/C",[30],5.66%
same,"viability, T/C",[31],6.36%
